Experimental data reported in PMC11892739, “Site-specific molecular glues for the 14-3-3/Tau pS214 protein–protein interaction via reversible covalent imine tethering” (RSC Medicinal Chemistry, 2025).

Target: T1, 14-3-3ζ/RND3 peptide (Homo sapiens, UniProt P63104)
T1 construct: made in house; host or cells: NiCo21 (DE3) E. coli
Test: FA peptide screen, 14-3-3ζ titration to client peptide and compound: RND3
Type: binding
Details: 250 μM compound, 100 nM peptide; +1 Cys
Procedure: Since the hub protein 14-3-3 binds to hundreds of phosphoprotein partners, selectivity of PPI stabilization is a major challenge. The interplay of chemical reactivity, and the topology and functionality of the composite binding pocket shaped by 14-3-3 and Tau potentially provide entries towards selective stabilization. […] Here, 14-3-3ζ was titrated to a constant concentration of client peptide (100 nM) and compound (250 μM) to determine the SF250μM values for the particular 14-3-3 PPI. A variety of 14-3-3 binding proteins was represented in this client panel whereby the size and hydrophobicity of the +1 amino acid were varied. […]
chromatography (HisTrap high performance cartridges, Cytiva). Typically two 5 mL columns were used for a 2 L culture in which the lysate was loaded on the column, washed with 10 CV wash buffer (50 mM Hepes, pH 8.0, 300 mM NaCl, 25 mM imidazole, 2 mM βME), and eluted with several fractions (2-4 CV) of elution buffer (50 mM Hepes, pH 8.0, 300 mM NaCl, 250 mM imidazole, 2 mM βME). […] Dialyzed protein was concentrated to ∼40 mg/mL, analyzed by Q -Tof LC/MS, and aliquots were flash -frozen for storage at −80 °C. […] Fractions containing the 14 -3-3 protein were pooled and concentrated to ∼60 mg/mL, analyzed Q -Tof LC/MS, and aliquots were flash -frozen for storage at −80°C.
Fluorescence Anisotropy – compound titration […]

T1 sequence (P63104 whole entry, other chains not shown): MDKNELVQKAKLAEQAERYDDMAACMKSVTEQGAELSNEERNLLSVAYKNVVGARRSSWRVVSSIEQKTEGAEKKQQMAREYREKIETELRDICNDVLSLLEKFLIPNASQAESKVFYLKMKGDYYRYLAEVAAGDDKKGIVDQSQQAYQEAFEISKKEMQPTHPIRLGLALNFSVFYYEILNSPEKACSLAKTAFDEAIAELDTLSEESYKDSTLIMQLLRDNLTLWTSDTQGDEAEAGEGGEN

## CCc1ccc(-c2nccn2-c2ccc(C=O)c(Br)c2)cc1 [Compound 18]
  stabilization of 14-3-3/RND3 peptide (in words): did not show significant stabilizing activity
